In ChEMBL document CHEMBL4421719, “Modulation of k2p channels” (2016):

How the values were obtained:
Assay type in all cases: cell-based
[1] = molecular target: Potassium channel subfamily K member 3 (Homo sapiens) (UniProt O14649); test: Activation of K2P3.1 (unknown origin) expressed in Xenopus oocytes assessed as effect on channel currents at -80 mV holding potential at 100 uM by two-electrode voltage clamp assay relative to control
[2] = molecular target: T1, Potassium channel subfamily K member 2 (Homo sapiens) (UniProt O95069); test: Activation of K2P2.1 (unknown origin) expressed in HEK293T cells assessed as effect on channel currents by measuring half-maximal activation time at 5 to 20 uM by two-electrode voltage clamp assay relative to control
T1 sequence (whole entry): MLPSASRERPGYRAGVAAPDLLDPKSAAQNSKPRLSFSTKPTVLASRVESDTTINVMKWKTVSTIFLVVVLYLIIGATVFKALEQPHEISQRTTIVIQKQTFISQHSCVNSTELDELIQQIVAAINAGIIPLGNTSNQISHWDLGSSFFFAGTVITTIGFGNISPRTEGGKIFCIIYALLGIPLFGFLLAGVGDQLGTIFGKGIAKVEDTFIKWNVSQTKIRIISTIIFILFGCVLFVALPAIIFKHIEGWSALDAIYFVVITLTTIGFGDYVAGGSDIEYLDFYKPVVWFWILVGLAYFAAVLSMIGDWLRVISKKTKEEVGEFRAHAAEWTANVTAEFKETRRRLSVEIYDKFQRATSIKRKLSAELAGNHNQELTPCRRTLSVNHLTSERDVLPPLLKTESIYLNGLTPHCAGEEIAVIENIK

[3] = molecular target: T1, Potassium channel subfamily K member 2 (Homo sapiens); test: Activation of K2P2.1 (unknown origin) expressed in whole HEK293T cells in assessed as effect on channel currents by measuring time of half-maximal activation at 20 uM by two-electrode voltage clamp assay relative to control
[4] = species: Homo sapiens; test: Activation of K2P2.1 3G mutant (unknown origin) expressed in Xenopus oocytes assessed as effect on channel currents at -80 mV holding potential by two-electrode voltage clamp assay relative to control
[5] = molecular target: T2, Potassium channel subfamily K member 5 (Homo sapiens) (UniProt O95279); test: Activation of K2P5.1 (unknown origin) expressed in Xenopus oocytes assessed as effect on channel currents at -80 mV holding potential by two-electrode voltage clamp assay relative to control
T2 sequence (whole entry): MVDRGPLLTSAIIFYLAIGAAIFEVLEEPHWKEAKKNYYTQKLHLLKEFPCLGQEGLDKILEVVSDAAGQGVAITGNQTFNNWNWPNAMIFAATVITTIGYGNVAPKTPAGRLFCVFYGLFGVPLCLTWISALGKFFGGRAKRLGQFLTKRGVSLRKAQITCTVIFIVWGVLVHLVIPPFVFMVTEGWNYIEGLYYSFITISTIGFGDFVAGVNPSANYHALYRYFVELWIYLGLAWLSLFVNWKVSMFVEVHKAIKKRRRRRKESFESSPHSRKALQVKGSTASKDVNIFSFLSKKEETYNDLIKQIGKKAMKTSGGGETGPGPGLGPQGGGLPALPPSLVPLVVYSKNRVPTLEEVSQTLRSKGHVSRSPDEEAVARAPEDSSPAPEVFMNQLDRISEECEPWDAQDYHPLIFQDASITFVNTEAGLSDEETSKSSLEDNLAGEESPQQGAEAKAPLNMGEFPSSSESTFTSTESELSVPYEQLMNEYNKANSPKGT

[6] = molecular target: T3, Potassium channel subfamily K member 10 (Homo sapiens) (UniProt P57789); test: Activation of K2P10.1 (unknown origin) expressed in Xenopus oocytes assessed as effect on channel currents at -80 mV holding potential by two-electrode voltage clamp assay relative to control
T3 sequence (whole entry): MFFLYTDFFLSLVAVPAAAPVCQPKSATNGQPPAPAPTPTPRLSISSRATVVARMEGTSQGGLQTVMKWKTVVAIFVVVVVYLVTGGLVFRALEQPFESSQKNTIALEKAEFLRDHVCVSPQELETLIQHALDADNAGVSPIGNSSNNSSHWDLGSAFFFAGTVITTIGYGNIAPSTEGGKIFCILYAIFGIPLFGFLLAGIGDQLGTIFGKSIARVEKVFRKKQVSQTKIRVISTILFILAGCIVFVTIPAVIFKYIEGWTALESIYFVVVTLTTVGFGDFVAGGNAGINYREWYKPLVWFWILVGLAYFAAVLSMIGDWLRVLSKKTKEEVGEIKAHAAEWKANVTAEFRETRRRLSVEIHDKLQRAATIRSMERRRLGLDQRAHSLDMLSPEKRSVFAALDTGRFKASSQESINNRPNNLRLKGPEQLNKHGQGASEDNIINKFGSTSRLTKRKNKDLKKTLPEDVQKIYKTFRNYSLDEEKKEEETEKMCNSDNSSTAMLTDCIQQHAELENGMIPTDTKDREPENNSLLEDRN

Sequence of Potassium channel subfamily K member 3 (Homo sapiens) (O14649 whole entry, looked up): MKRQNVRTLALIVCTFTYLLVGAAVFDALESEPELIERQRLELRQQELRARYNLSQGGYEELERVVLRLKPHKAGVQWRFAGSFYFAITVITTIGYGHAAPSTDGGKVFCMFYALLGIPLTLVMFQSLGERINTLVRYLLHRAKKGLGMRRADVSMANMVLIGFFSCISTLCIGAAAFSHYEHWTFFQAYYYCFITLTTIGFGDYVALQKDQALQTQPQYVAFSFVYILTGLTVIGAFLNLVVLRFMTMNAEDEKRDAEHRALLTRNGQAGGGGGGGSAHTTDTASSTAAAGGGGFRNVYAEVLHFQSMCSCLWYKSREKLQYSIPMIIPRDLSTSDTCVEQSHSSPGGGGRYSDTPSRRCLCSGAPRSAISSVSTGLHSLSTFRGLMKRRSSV

Emax [1]: 1.1%
TIME [2]: 0.00114 h
T1/2 [3]: 4.1 s
Emax [5]: 1.7
Emax [6]: 11.4
SMILES: CC1(C)c2cc(Cl)ccc2N(CCc2nnn[nH]2)c2ccc(Cl)cc21
Emax [4]: 12.9
